Here are results for three compounds from patent publication US11801240B2, “Combination therapies and uses thereof” (Tesaro, Inc., priority 2017, dated 2023).

For experiment [1], the system named is A2780 (BRCA wt, HRD−) ovarian cancer cell line-derived xenograft. In words: Niraparib and cabozantinib combination in ovarian cancer cell line-derived xenograft model A2780. The format is in vivo, mouse. The settings on record: A2780, Balb/C nude female mice, 2 weeks; niraparib 60 mg/kg po qd, cabozantinib 30 mg/kg po qd; end of treatment.
The test system of another experiment is ovarian PDX model OVC134. The experiment is described as follows: Niraparib and cabozantinib combination in ovarian PDX model OVC134. The experiment is classed as in vivo, mouse.
Another experiment concerns TNBC PDX model MAXF 857. The experiment is described as follows: Niraparib+bevacizumab and niraparib+cabozantinib combinations in TNBC PDX model MAXF 857. The experiment is classed as in vivo, mouse. The settings on record: for Tumor growth inhibition (TGI): MAXF 857, NMRI nude female mice, 5 weeks, bevacizumab 20 mg/kg iv qw, cabozantinib 30 mg/kg po qd, end of treatment.

Experiment [2] concerns A2780 (BRCA wt, HRD−) ovarian cancer cell line-derived xenograft. In words: Niraparib and bevacizumab combination in ovarian cancer cell line-derived xenograft model A2780. The format is in vivo, mouse. The settings on record: A2780, CB-17 SCID female mice, 2 weeks; niraparib 60 mg/kg po qd, bevacizumab 10 mg/kg iv qw; end of treatment.

In the case of `COc1cc2nccc(Oc3ccc(NC(=O)C4(C(=O)Nc5ccc(F)cc5)CC4)cc3)c2cc1OC` [cabozantinib], the “Tumor growth inhibition (TGI)” value is on record as 51% in experiment [1]; 83% with ovarian PDX model OVC134 (OVC134, Balb/C nude female mice, 7 weeks, cabozantinib 30 mg/kg po qd, end of treatment); 65% in the experiment with TNBC PDX model MAXF 857.
In the case of `NC(=O)c1cccc2cn(-c3ccc([C@@H]4CCCNC4)cc3)nc12` [niraparib, (3S)-3-[4-{7-(aminocarbonyl)-2H-indazol-2-yl}phenyl]piperidine], the “Tumor growth inhibition (TGI)” value in experiment [2] was < 40%; in experiment [1] it was 18%; in the experiment on TNBC PDX model MAXF MX1 (MAXF MX1, NMRI nude female mice, 5 weeks, niraparib 50 mg/kg po qd, end of treatment), 99%. Besides, the “Sensitivity of the model to monotherapy (anti-tumor activity)” value is listed as “very sensitive” in the experiment with ovarian PDX model OVC134 (ovarian PDX model OVC134, 7 weeks) and “very sensitive” in the experiment on TNBC PDX model MAXF MX1 (TNBC PDX model MAXF MX1, 5 weeks).
On to “bevacizumab: recombinant humanized monoclonal antibody that can block angiogenesis and inhibit vascular endothelial growth factor A (VEGF-A)”, for which the “Tumor growth inhibition (TGI)” value in experiment [2] is reported as 55%; with TNBC PDX model MAXF 857 it was 76%. Also, the “Sensitivity of the model to monotherapy (anti-tumor activity)” value with TNBC PDX model MAXF 857 (TNBC PDX model MAXF 857, 5 weeks) was “very sensitive”.
